Experimental data from patent US5554359A, “Pigmentation enhancer and method” (priority 1994, dated 1996).
Values belong to the compound of their own block, whether it stands above or below them.

Columns and labels:
[1] = test system: tyrosinase activity in mouse melanoma cells; details: e.g., 10^-5 M; footnote b of Table 6; cited from earlier work
[2] = test system: tyrosinase activity in human melanocytes; assay: Tyrosinase responses in human melanocytes (Table 6); assay type: cell-based
Description: (§1) The mouse melanoma cell lines used to study the effects of lysosomotropic agents herein were the Cloudman S91 cell line (ATCC no. CCL 53.1) and two subclones of this line developed in our laboratory, the amelanotic line, AM-7, and a melanotic line, MEL-11A. All melanoma cell lines were grown in Ham's F-10 nutrient medium supplemented with 10% horse serum, penicillin (100 units/ml), and streptomycin (100 μg/ml). The normal human melanocyte cell strains used in this study were derived from foreskins of either neonares or from boys 2-6 years old. Human melanocyte cultures were grown in Ham's F-10 nutrient medium supplemented with 10% horse serum, 5% fetal bovine serum (FBS), 32 nM TPA (12-O-tetradecanoylphorbol 13-acetate), 10^-4 M IBMX(3-isobutyl-1-methylxanthine), penicillin (100 units/ml), and streptomycin (100 μg/ml).
(§2) To determine tyrosinase activity in situ in either melanoma cells or in human melanocyte cultures, the tyrosine hydroxylase activity of the enzyme was determined. Cells were seeded into 60-mm culture dishes at 2×10^5 cells/dish and allowed to attach overnight. The medium was then exchanged for the appropriate growth medium supplemented with 1 μCi/ml of [^3 H]tyrosine (L-ring-3,5-^3 H]-tyrosine, DuPont New England Nuclear), and with hormones, where indicated. Cells were grown in labeled medium for 24 hours, and at this time, the medium was removed and assayed for the presence of ^3 H2 O using the charcoal absorption method of Pomerantz. Tyrosinase activity in cell homogenates was determined by sonicating cell pellets in 0.1-M sodium phosphate buffer (pH 6.8) and then incubating 50-μl aliquots in 0.5 ml of a reaction mixture containing 0.1-mM tyrosine, 2 μCi/ml of [^3 H]tyrosine, 0.1-mM L-DOPA (dihydroxyphenylalanine), and 0.1 mM PMSF (phenylmethylsulfonyl fluoride) at 37° C. for 2 hours. Reactions were terminated by the addition of 1 ml of charcoal (10% w/v in 0.1-N HCl). Samples were centrifuged, and the supernatants removed for determination of the amount of ^3 H2 O produced.
Hormone responsiveness in human melanocyte cell cultures were examined (for these studies, melanocytes derived from skin type III were used). […] Tyrosinase activity and melanin content typically double with a 48-hour exposure to IBMX. […] The steroid hormones, for the most part, caused little, if any, change in tyrosinase activity at the concentrations used.

[3] = test system: tyrosinase activity in mouse melanoma cells; assay: Tyrosinase responses in mouse melanoma cells (Table 6); assay type: cell-based
Description: as §1
as §2, with “produced. […]” for “produced.”

[4] = test system: tyrosinase activity in mouse melanoma cells; details: Cloudman S91; cited from earlier work
[5] = test system: tyrosinase activity in human foreskin organ cultures; assay: Tyrosinase activity in human foreskin organ cultures (tyrosine hydroxylase assay); assay type: cell-based; details: Table 2; 0.1 mM; 72 h; control 3.15 ± 0.1; triplicate ± s.d.
Description: At the time of surgical removal, human foreskins were placed on sterile gauze saturated with sterile IMDM medium (Iscove's modified Dulbecco's medium purchased from Irvine Scientific of Santa Ana, Calif.) for transportation from the Hospital nursery to the laboratory. The tissues were rinsed in sterile IMDM medium containing 500 U/ml penicillin and 500 μg/ml of streptomycin for 5 minutes. Under sterile conditions, an intradermal injection of medium was performed from the dermal side prior to dissection of the mucous membrane and lower dermis by scissors to make the thickness of skins equal. The foreskins were then cut into approximately 3 mm×3 mm squares and either frozen at -75° C. or placed in organ culture as described hereafter.
The organ culture medium was prepared from IMDM with glutamine supplemented with 20% horse serum, 5% fetal bovine serum, 100 U/ml penicillin, 100 μg/ml streptomycin and 3 mg/ml sodium bicarbonate. The serums were obtained from Hyclone Lab. Inc. of Logan Utah. Culture units were prepared by placing sterilized filters (AP20 025 00, Millipore) over sterilized support screens ([…] Swinnex filter support screens, Millipore) in the wells of 6-well tissue culture plates (Falcon 3046) with medium added to the wells such that the skin support screens floated and the filter absorbed the medium from beneath. The tissue samples were placed, epidermis up, on top of the saturated filters and incubated at 37° C. in a 5% CO2 humidified atmosphere. The medium was changed everyday. Harvested cultures were frozen at -75° C.
Tyrosinase activity in human skin organ cultures was determined by measuring the tyrosine hydroxylase activity of the enzyme. The assay measures the production of ^3 H2 O during the conversion of [^3 H]tyrosine to L-DOPA. Weighed skin preparations were incubated in 0.3 ml of a reaction mixture containing 0.01 mM of L-tyrosine, 5-6 uCi/ml of [^3 H]tyrosine and 0.1 mM L-DOPA in 0.1M of pH 6.8 phosphate buffer for 4 hours at 37° C. To terminate the reaction, 1 ml of phosphate buffer was added, the tubes vortexed, and 0.4 ml aliquots removed in triplicate and mixed with an equal volume of Norit SG activated charcoal (10% w/v, in 0.1N HCl). Following centrifugation at 2000×g for 10 min, the supernatants (0.5 ml) were placed in scintillation vials, scintillation fluid added, and vials counted in a TM Analytic 6895 scintillation counter equipped with a DPM processor.
Human foreskins were treated with the compounds shown in Table 1, placed in culture, and incubated for 72 hours. The skins were then assayed for tyrosinase activity with the tyrosine hydroxylase assay method as described herein.
The medium and compounds were changed daily. Tyrosinase activity was determined by measuring the tyrosine hydroxylase activity of the enzyme.
Human foreskin organ cultures were treated with the compounds listed in Table 3 for 3 days and tyrosinase activity determined as described herein. Theophylline was used at 1 mM.

[6] = test system: melanin in human melanocytes; details: three days; melanocyte cultures; cited from earlier work
[7] = test system: tyrosinase mRNA; details: three days; melanocyte cultures; cited from earlier work
[8] = test system: tyrosinase abundance in mouse melanoma cells; details: other studies; cited from earlier work
[9] = test system: melanin in human melanocytes; assay: Melanin content in human melanocytes; assay type: cell-based; details: 48-hour exposure; IBMX
Description: as §1
The amount of melanin in melanoma cells or in melanocytes was determined by incubating cell pellets in 2 ml of 1-N NaOH for 48 hours at 37° C. and then measuring the solubilized melanin at 400 nm.
Dose/response parameters for ammonium chloride action were determined. […] Since tyrosinase is the rate-limiting enzyme for melanin synthesis, the stimulation of this enzyme by ammonium chloride should lead to increased melanin content of stimulated cells. […] Ammonium chloride increased tyrosinase activity in melanocytes from white-skinned individuals twenty-fold within 24 hours and by this time melanin contents had increased two-fold. Two other lysosomotropic agents, monensin and nigericin, were tested for their effects on tyrosinase activity. […] Thus, lysosomotropic agents have the ability to stimulate tyrosinase activity and melanin production in human melanocytes derived from white-skinned individuals, and to reduce melanin production in melanocytes from black-skinned people.

Structure (SMILES): CC1=C(/C=C/C(C)=C/C=C/C(C)=C/C(=O)O)C(C)(C)CCC1 [Retinoic Acid, all-trans]
- effect on tyrosine activity at higher concentrations [1]: stimulate tyrosine activity
- Effect on Tyrosinase Activity, Human Melanocyte ([2]; Table 6, 10^-7 M except IBMX 10^-4 M, theophylline 1 mM, ammonium chloride 10 mM, A23187 not given, melanocytes from skin type III): Inhibited
- Effect on Tyrosinase Activity, Mouse Melanoma ([3]; Table 6, 10^-7 M except IBMX 10^-4 M, theophylline 1 mM, ammonium chloride 10 mM, A23187 not given): Inhibited

- Tyrosinase Activity ([2]; 48-hour exposure, IBMX): double
Structure (SMILES): CC(C)Cn1c(=O)n(C)c(=O)c2[nH]cnc21 [IBMX, 3-isobutyl-1-methylxanthine]
- mimicking of the MSH response [4]: mimicked
- Tyrosinase Activity [5]: 7.03 ± 0.49 pmoles ^3 H2 O/hour/mg skin
- increase in melanin production [6]: fourfold increase
- activity at 100 µM ([2]; Homo sapiens, Melanocyte, Table 6, 10^-7 M except IBMX 10^-4 M, theophylline 1 mM, ammonium chloride 10 mM, A23187 not given, melanocytes from skin type III, read-out: Effect on Tyrosinase Activity, Human Melanocyte): 150 to 200%
- response of mouse melanoma cells ([3]; compounds that raise intracellular cAMP levels or MSH): respond vigorously
- change in amount of tyrosinase mRNA [7]: not accompanied by any increase
- tyrosinase activity correlates with enzyme abundance [8]: correlates with an increase in enzyme abundance
- melanin content [9]: double
